Experimental data: patent publication US7648972B2, “2-methylene-1α-hydroxy-19,21-dinorvitamin D3 analogs and uses thereof” (Wisconsin Alumni Research Foundation, priority 2006, dated 2010)
“Also recorded” adds a separate entry of the source.

How the values were obtained:
[1] = tested on: Male, weanling Sprague-Dawley rats; assay: Intestinal calcium transport (everted gut sac method); type: in vivo, rat; settings: four consecutive ip doses, FIG. 3
Excerpt: (§1) Male, weanling Sprague-Dawley rats were placed on Diet 11 (Suda et al., Purified Rodent Diet-Diet 11, containing 0.47% and 0.3% phosphorus and fat soluble vitamins A, D, E and K are provided ad libitum)(0.47% Ca) diet+AEK for one week followed by Diet 11 (0.02% Ca)+AEK for 3 weeks. The rats were then switched to a diet containing 0.47% Ca for one week followed by two weeks on a diet containing 0.02% Ca. Dose administration began during the last week on 0.02% calcium diet. Four consecutive ip doses were given approximately 24 hours apart. Twenty-four hours after the last dose, blood was collected from the severed neck and the concentration of serum calcium determined as a measure of bone calcium mobilization. The first 10 cm of the intestine was also collected for intestinal calcium transport analysis using the everted gut sac method. The everted gut sac assay was carried out as previously described by Martin and Deluca, Am. J. Physiol. 216, 1351 (1969); (DeLuca et al., U.S. Pat. No. 4,188,345), which are incorporated by reference as if fully set forth herein.
The negative control material is prepared by volumetrically measuring ethanol (<5%) and propylene glycol, mixing, and then placing in storage at 2 to 8° C.
The solution is mixed and then stored at 2 to 8° C. […]

HL-60 cells = assay: HL-60 differentiation (nitro blue tetrazolium reduction); type: cell-based, human; settings: FIG. 4
Procedure: The study drugs were dissolved in ethanol and the concentrations determined using UV spectrophotometry. Serial dilutions were prepared so that a range of drug concentrations could be tested without changing the final concentration of ethanol (<0.2%) present in the cell cultures.
Human promyelocytic leukemia (HL60) cells were grown in RPMI-1640 medium containing 10% fetal bovine serum. The cells were incubated at 37° C. in the presence of 5% CO2.
HL60 cells were plated at 1.2×10^5 cells/ml. Eighteen hours after plating, cells in duplicate were treated with drug. Four days later, the cells were harvested and a nitro blue tetrazolium reduction assay was performed (Collins et al., 1979; J. Exp. Med. 149:969-974). The percentage of differentiated cells was determined by counting a total of 200 cells and recording the number that contained intracellular black-blue formazan deposits. Verification of differentiation to monocytic cells was determined by measuring phagocytic activity (data not shown).

[2] = target: T1, full-length recombinant rat vitamin D receptor (Rattus norvegicus, UniProt P13053); assay: Vitamin D receptor binding (competition with [3H]-1,25-(OH)2-D3)
T1 construct: Full-length recombinant rat receptor was expressed in E. coli BL21 (DE3) Codon Plus RIL cells; histidine tag (C); made in house; host or cells: E. coli BL21 (DE3) Codon Plus RIL
T1 sequence (P13053 1-423): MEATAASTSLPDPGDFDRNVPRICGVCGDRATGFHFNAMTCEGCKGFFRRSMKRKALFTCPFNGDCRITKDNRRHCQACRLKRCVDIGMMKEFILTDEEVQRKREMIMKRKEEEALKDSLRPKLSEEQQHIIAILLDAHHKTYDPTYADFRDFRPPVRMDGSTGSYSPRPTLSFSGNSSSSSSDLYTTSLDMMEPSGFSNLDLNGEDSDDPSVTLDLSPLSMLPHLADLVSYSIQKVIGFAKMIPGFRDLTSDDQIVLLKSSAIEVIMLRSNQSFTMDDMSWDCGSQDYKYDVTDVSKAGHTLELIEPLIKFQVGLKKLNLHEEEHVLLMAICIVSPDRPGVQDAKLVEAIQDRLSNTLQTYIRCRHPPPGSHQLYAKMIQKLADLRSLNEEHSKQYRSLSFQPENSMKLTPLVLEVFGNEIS
Procedure: Full-length recombinant rat receptor was expressed in E. coli BL21 (DE3) Codon Plus RIL cells and purified to homogeneity using two different column chromatography systems. The first system was a nickel affinity resin that utilizes the C-terminal histidine tag on this protein. The protein that was eluted from this resin was further purified using ion exchange chromatography (S-Sepharose Fast Flow). Aliquots of the purified protein were quick frozen in liquid nitrogen and stored at −80° C. until use. For use in binding assays, the protein was diluted in TEDK50 (50 mM Tris, 1.5 mM EDTA, pH7.4, 5 mM DTT, 150 mM KCl) with 0.1% Chaps detergent. The receptor protein and ligand concentration was optimized such that no more than 20% of the added radiolabeled ligand was bound to the receptor.
Radiolabeled ligand (^3H-1,25(OH)2D3, ˜159 Ci/mmole) was added in ethanol at a final concentration of 1 nM.
Radiolabeled and unlabeled ligands were added to 100 mcl of the diluted protein at a final ethanol concentration of <10%, mixed and incubated overnight on ice to reach binding equilibrium. The following day, 100 mcl of hydroxylapatite slurry (50%) was added to each tube and mixed at 10-minute intervals for 30 minutes. […] Total binding was determined from the tubes containing only radiolabeled ligand.

[3] = tested on: Male, weanling Sprague-Dawley rats; assay: Bone calcium mobilization (serum calcium); type: in vivo, rat; settings: four consecutive ip doses, FIG. 2
Excerpt: as §1, with “herein. […]” for “herein.”
Twenty-four hours after the final dose, approximately 1 ml of blood is collected from the tail artery of each experimental animal. […] The level of calcium is determined by diluting the serum into 0.1% lanthum chloride and measuring the absorbance on an atomic absorption spectrophotometer (Perkin Elmer Model 3110, Shelton, Conn.).

[4] = tested on: 24-hydyroxylase (24Ohase) gene promoter luciferase reporter in ROS 17/2.8 (bone) cells; assay: In vitro transcription assay (24-hydroxylase promoter luciferase reporter); type: cell-based; settings: Ros17/2.8 (bone) cells
Procedure: Transcription activity was measured in ROS 17/2.8 (bone) cells that were stably transfected with a 24-hydyroxylase (24Ohase) gene promoter upstream of a luciferase reporter gene (Arbour et al., 1998). Cells were given a range of doses. Sixteen hours after dosing the cells were harvested and luciferase activities were measured using a luminometer. (RLU=relative luciferase units)

With `C=C1[C@H](O)CC(=C/C=C2\CCC[C@]3(C)[C@@H](CCCCC(C)C)CC[C@@H]23)C[C@H]1O` [SY-44, 2-methylene-1α-hydroxy-19,21-dinorvitamin D3] the “intestinal calcium transport activity compared with 1α,25-dihydroxyvitamin D3” value [1] was “higher intestinal calcium transport activity; also recorded: high intestinal calcium transport activity”, the “activity in inducing differentiation of HL-60 cells compared with 1α,25-dihydroxyvitamin D3” value (HL-60 cells) was “slightly less active; also recorded: capability to induce differentiation of HL-60 cells” and the “binding to the recombinant vitamin D receptor, times less active when compared to 1α,25-dihydroxyvitamin D3” value ([2]; competition with [3H]-1,25-(OH)2-D3, relative to 1α,25-dihydroxyvitamin D3, FIG. 1) was 10 times. For the same compound, the “binding to vitamin D receptors (in words)” value ([2]; summary statement) was “high binding to vitamin D receptors”, the “bone calcium mobilization activity compared with 1α,25-dihydroxyvitamin D3” value [3] was “less bone calcium mobilization activity; also recorded: low ability to mobilize calcium from bone” and the “stimulating transcription of a reporter gene, times less active than 1α,25-dihydroxyvitamin D3” value ([4]; stably transfected reporter, FIG. 5) was 10 times. For the same compound, the “stimulation of transcription of reporter gene (in words)” value ([4]; summary statement) was “capability to stimulate transcription of reporter gene”.
